Results from patent publication US12544374B2, “AZA-quinoline compounds and uses thereof” (Novartis AG, priority 2019, dated 2026).
Like-named read-outs stand apart in the source and are kept apart here.

What was measured:
[1] = target: wild type PRC2 (wtPRC2) complex (Homo sapiens (Human), UniProt Q15910); assay: EZH2 LC-MS assay (LC-Qualified); format: biochemical; conditions: (a) LC-Qualified assay
Procedure: Representative compounds of the invention were serially and separately diluted 3-fold in DMSO to obtain twelve concentrations. […] Solutions (6 μL) of 80 nM wild type PRC2 (wtPRC2) complex and 60 μM SAM in reaction buffer (20 mM Tris, pH 8.0, 0.1% BSA, 0.01% Triton, 0.5 mM DTT) were added to the wells that were then incubated with the test compound for 20 min. A 6 μL solution of 3 μM of the substrate peptide H3K27me1 (histone H3[21-44]-K27me1-biotin) and 6 μM regulatory peptide H3K27me3 (histone H3[21-44]-K27me3) in reaction buffer was added to initiate each reaction. […] The data were fit to a dose response equation using the program Helios to get the IC50 values of the test compound.

[2] = target: EZH2 (Homo sapiens (Human), UniProt Q15910); assay: ELISA (H3K27 methylation) assay in G401 cell; format: cell-based; conditions: (b) ELISA Qualified assay, 48 h
Sequence of EZH2 (Q15910 whole entry): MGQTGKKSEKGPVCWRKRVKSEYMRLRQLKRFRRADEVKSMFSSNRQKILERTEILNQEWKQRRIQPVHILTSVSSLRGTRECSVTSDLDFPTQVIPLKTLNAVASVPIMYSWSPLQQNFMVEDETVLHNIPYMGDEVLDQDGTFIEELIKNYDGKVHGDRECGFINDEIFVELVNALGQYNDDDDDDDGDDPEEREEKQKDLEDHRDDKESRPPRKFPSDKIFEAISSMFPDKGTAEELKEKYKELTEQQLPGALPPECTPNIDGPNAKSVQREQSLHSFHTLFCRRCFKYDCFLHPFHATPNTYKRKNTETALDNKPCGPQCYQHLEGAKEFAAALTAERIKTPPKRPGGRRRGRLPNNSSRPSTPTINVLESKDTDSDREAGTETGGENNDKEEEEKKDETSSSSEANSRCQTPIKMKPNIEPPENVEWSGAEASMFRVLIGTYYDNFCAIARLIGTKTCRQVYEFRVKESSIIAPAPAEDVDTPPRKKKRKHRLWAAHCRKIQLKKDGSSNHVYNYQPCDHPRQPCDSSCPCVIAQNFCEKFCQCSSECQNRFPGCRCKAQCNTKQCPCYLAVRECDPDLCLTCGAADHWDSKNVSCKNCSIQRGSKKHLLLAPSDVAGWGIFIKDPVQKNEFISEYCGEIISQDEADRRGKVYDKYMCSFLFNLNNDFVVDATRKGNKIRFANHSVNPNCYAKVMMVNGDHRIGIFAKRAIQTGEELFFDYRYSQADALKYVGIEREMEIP
Sequence of EZH2 (Q15022 whole entry partner): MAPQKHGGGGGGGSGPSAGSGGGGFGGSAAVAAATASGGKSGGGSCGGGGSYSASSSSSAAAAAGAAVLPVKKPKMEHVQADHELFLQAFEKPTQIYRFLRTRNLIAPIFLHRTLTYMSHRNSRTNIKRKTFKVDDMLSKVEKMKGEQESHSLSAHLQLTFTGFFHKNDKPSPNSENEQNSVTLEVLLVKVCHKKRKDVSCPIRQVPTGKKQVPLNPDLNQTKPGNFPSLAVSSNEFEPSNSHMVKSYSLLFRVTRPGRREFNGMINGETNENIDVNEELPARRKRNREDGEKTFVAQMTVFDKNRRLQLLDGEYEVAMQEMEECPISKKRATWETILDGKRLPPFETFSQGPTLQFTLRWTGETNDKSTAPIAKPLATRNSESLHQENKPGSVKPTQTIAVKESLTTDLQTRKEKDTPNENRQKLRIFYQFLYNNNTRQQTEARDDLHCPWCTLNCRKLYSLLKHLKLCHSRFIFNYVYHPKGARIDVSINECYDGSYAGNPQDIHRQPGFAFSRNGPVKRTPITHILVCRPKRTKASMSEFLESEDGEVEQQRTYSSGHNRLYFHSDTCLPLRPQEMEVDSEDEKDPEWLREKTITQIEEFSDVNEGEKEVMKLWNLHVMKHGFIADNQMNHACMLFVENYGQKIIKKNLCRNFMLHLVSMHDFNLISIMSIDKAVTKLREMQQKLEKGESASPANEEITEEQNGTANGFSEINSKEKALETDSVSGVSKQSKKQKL
Sequence of EZH2 (O75530 whole entry partner): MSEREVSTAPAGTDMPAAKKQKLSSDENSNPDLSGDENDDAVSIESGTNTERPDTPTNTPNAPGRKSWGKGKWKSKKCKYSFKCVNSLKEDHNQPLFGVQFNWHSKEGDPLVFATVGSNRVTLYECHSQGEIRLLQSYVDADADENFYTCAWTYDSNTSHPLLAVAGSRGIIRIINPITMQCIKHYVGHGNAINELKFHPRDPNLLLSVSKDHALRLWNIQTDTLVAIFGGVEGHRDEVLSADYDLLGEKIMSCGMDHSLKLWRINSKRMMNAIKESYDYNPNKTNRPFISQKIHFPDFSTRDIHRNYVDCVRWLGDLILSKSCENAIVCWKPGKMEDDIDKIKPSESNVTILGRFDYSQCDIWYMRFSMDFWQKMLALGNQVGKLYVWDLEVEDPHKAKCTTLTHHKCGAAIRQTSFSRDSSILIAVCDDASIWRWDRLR
Sequence of EZH2 (Q09028 whole entry partner): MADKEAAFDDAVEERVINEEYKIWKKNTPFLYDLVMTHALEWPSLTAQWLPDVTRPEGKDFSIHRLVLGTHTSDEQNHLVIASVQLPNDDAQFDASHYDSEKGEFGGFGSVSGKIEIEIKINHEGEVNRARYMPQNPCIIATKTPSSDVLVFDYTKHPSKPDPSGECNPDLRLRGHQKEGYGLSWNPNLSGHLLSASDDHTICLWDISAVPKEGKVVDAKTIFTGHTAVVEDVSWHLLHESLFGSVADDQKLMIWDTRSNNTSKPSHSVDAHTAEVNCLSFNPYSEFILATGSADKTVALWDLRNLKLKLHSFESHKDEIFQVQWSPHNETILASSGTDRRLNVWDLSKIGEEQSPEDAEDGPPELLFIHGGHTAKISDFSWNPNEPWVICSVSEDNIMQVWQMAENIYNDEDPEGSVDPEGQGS
Procedure: Representative compounds of the invention were serially and separately diluted 3-fold in DO to obtain a total of eight or twelve concentrations. Then the compounds were added to G401 cell cultured in 384-well plate at 1:500 dilution to obtain the highest concentration of 20 μM. The cells were further cultured for 48 h before ELISA procedure.
ELISA protocol: Cell lysates were transferred to the wells of a 384-well plate and the final volume was adjusted to 50 μL per well with PBS. The plate was sealed, centrifuged at 2,000 rpm for 2 min and incubated at 4° C. for about 16 h. The plate was washed with TBST buffer (1×TBS (10×TBS: 24.2 g Tris (Sigma, T6066), 80 g NaCl (Sigma, S3014) to 1 L of water and adjust pH to 7.6 with HCl) with 0.1% Tween-20). Blocking buffer (TBST, 5% BSA; 50 μL per well) was added and the plate was incubated for 1 h at rt. The blocking buffer was removed and primary antibody was added (30 μL per well). […] The primary antibody was incubated in the plate at rt for 1 h. The wells were washed with TBST and incubated with secondary antibody for 1 h at rt.
After 1 h of incubation at rt, the wells were washed with TBST. […] The signal was read using a PerkinElmer Envision Reader. The H3K27 methylation readouts were normalized using H3 signal and then percentage inhibition was calculated against the samples treated with DO. The data were fit to a dose response curve using the program Helios to get the IC50 values of the test compound.

[3] = test system: B cell lymphoma cell KARPAS422; assay: Analysis of cell proliferation, KARPAS422; format: cell-based, human; conditions: KARPAS422 after 14 days of treatment, read-out: antiproliferative activities IC50
Procedure: B cell lymphoma cell KARPAS422 was cultured using standard cell culture conditions in RPMI-1640 (Invitrogen, cat #11875) supplemented with 15% FBS (Invitrogen, cat #10099-141) in humidified incubator at 37° C., 5% CO2. To assess the effect of PRC2 inhibition on cell proliferation, exponentially growing cells were seeded at a density of 1×10^5 cells/mL in 12-well plate (Corning, cat #CLS3513). After cell seeding, a compound of the invention was added to the cell media (in concentrations ranging from 0 to 100 μM, 3× dilution series). Viable cell numbers were determined every 3-4 days for up to 14 days using Vi-CELL (Beckman Coulter). On days of cell counting, fresh growth media and compound were replenished and cells split back to a density of 1×10^5 cells/mL. Total cell number is expressed as split-adjusted viable cells per mL. The dose response curves and IC50 values were generated using Prism.

[4] = Homo sapiens, KARPAS-422, 336 h

Sequence of wild type PRC2 (wtPRC2) complex (Q15910 whole entry): as the sequence (Q15910 whole entry) above
Sequence of wild type PRC2 (wtPRC2) complex (Q15022 whole entry partner): as the sequence (Q15022 whole entry partner) above
Sequence of wild type PRC2 (wtPRC2) complex (O75530 whole entry partner): as the sequence (O75530 whole entry partner) above
Sequence of wild type PRC2 (wtPRC2) complex (Q09028 whole entry partner): as the sequence (Q09028 whole entry partner) above
Sequence of wild type PRC2 (wtPRC2) complex (Q6ZN18 whole entry partner): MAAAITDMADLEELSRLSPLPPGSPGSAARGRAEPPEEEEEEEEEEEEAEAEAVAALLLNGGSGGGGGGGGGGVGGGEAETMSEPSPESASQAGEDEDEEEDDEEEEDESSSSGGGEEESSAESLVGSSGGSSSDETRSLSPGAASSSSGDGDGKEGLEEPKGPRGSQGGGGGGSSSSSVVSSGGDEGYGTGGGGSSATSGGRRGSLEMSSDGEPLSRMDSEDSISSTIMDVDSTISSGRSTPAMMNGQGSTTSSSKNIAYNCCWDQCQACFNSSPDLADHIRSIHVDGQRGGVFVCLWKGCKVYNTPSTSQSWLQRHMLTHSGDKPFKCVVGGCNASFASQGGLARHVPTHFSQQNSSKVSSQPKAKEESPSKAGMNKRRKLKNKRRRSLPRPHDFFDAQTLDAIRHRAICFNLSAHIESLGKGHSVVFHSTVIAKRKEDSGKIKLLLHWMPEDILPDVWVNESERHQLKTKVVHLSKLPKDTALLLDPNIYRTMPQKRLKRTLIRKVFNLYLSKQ

| SMILES | IC50 [1] [µM] | IC50 [2] [µM] | IC50 [3, 4] [nM] | IC50 [3] [nM] |
| --- | --- | --- | --- | --- |
| OCC1COC(c2cnc(NC[C@H]3CC[C@H](Nc4ccc5ccnc(Cl)c5n4)CC3)nc2)OC1 (mixture of isomers) [Compound C34, (2-(2-((((1,4-trans)-4-((8-chloro-1,7-naphthyridin-2-yl)amino)cyclohexyl)methyl)amino)pyrimidin-5-yl)-1,3-dioxan-5-yl)methanol] | 0.028 | 0.038 | 18 | – |
| C[C@H](C(=O)NC1COC1)c1cnc(NC[C@H]2CC[C@H](Nc3ccc4ccnc(Cl)c4n3)CC2)nc1 (relative stereo) [Compound C53, (S)-2-(2-((((1,4-trans)-4-((8-chloro-1,7-naphthyridin-2-yl)amino)cyclohexyl)methyl)amino)pyrimidin-5-yl)-N-(oxetan-3-yl)propanamide] | – | – | – | 0.3 |
| COc1nccc2ccc(N[C@H]3CC[C@H](CNc4ncc(N)cn4)CC3)nc12 [Compound C1, N^2-(((1,4-trans)-4-((8-methoxy-1,7-naphthyridin-2-yl)amino)cyclohexyl)methyl)pyrimidine-2,5-diamine] | 0.121 | 0.042 | 20 | – |
| COc1nccc2ccc(N[C@H]3CC[C@H](CNc4ncc(NC(C)=O)cn4)CC3)nc12 [Compound C6, N-(2-((((1,4-trans)-4-((8-methoxy-1,7-naphthyridin-2-yl)amino)cyclohexyl)methyl)amino)pyrimidin-5-yl)acetamide] | 0.101 | 0.066 | 69 | – |
| COc1nccc2ccc(N[C@H]3CC[C@H](CNc4ncc(C(=O)N5CCNCC5)cn4)CC3)nc12 [Compound C8, (2-((((1,4-trans)-4-((8-methoxy-1,7-naphthyridin-2-yl)amino)cyclohexyl)methyl)amino)pyrimidin-5-yl)(piperazin-1-yl)methanone] | 0.07 | 0.077 | 72 | – |
| COC(=O)Nc1cnc(NC[C@H]2CC[C@H](Nc3ccc4ccnc(Cl)c4n3)CC2)nc1 [Compound C15, Methyl (2-((((1,4-trans)-4-((8-chloro-1,7-naphthyridin-2-yl)amino)cyclohexyl)methyl)amino)pyrimidin-5-yl)carbamate] | 0.017 | 0.028 | 31 | – |
| Clc1nccc2ccc(N[C@H]3CC[C@H](CNc4ncc(CNC5COC5)cn4)CC3)nc12 [Compound C27, 8-chloro-N-((1,4-trans)-4-(((5-((oxetan-3-ylamino)methyl)pyrimidin-2-yl)amino)methyl)cyclohexyl)-1,7-naphthyridin-2-amine] | 0.027 | 0.019 | 8 | – |
| CC1(NCc2cnc(NC[C@H]3CC[C@H](Nc4ccc5ccnc(Cl)c5n4)CC3)nc2)COC1 [Compound C28, 8-chloro-N-((1,4-trans)-4-(((5-(((3-methyloxetan-3-yl)amino)methyl)pyrimidin-2-yl)amino)methyl)cyclohexyl)-1,7-naphthyridin-2-amine] | 0.031 | 0.005 | 2 | – |
| O=C(Cc1cnc(NC[C@H]2CC[C@H](Nc3ccc4ccnc(Cl)c4n3)CC2)nc1)NC1COC1 [Compound C36, 2-(2-((((1,4-trans)-4-((8-chloro-1,7-naphthyridin-2-yl)amino)cyclohexyl)methyl)amino)pyrimidin-5-yl)-N-(oxetan-3-yl)acetamide] | 0.009 | 0.011 | 3 | – |
| CN(C(=O)Cc1cnc(NC[C@H]2CC[C@H](Nc3ccc4ccnc(Cl)c4n3)CC2)nc1)C1COC1 [Compound C37, 2-(2-((((1,4-trans)-4-((8-chloro-1,7-naphthyridin-2-yl)amino)cyclohexyl)methyl)amino)pyrimidin-5-yl)-N-methyl-N-(oxetan-3-yl)acetamide] | 0.015 | 0.002 | 0.7 | – |
| CNc1nccc2ccc(N[C@H]3CC[C@H](CNc4ncc(C#N)cn4)CC3)nc12 [Compound C60, 2-((((1,4-trans)-4-((8-(methylamino)-1,7-naphthyridin-2-yl)amino)cyclohexyl)methyl)amino)pyrimidine-5-carbonitrile] | 0.022 | 0.021 | – | – |
| CNc1nccc2ccc(N[C@H]3CC[C@H](CNc4ncc(N)cn4)CC3)nc12 [Compound C62, N^2-((1,4-trans)-4-(((5-aminopyrimidin-2-yl)amino)methyl)cyclohexyl)-N^8-methyl-1,7-naphthyridine-2,8-diamine] | 0.149 | 0.031 | – | – |
| CNc1nccc2ccc(N[C@H]3CC[C@H](CNc4ncc(NC(C)=O)cn4)CC3)nc12 [Compound C63, N-(2-((((1,4-trans)-4-((8-(methylamino)-1,7-naphthyridin-2-yl)amino)cyclohexyl)methyl)amino)pyrimidin-5-yl)acetamide] | 0.096 | 0.037 | – | – |
| O=C1OCCN1c1cnc(NC[C@H]2CC[C@H](Nc3ccc4ccnc(Cl)c4n3)CC2)nc1 [Compound C64, 3-(2-((((1,4-trans)-4-((8-chloro-1,7-naphthyridin-2-yl)amino)cyclohexyl)methyl)amino)pyrimidin-5-yl)oxazolidin-2-one] | 0.053 | 0.054 | – | – |
| COC(=O)N(C)c1cnc(NC[C@H]2CC[C@H](Nc3ccc4ccnc(Cl)c4n3)CC2)nc1 [Compound C65, Methyl (2-((((1,4-trans)-4-((8-chloro-1,7-naphthyridin-2-yl)amino)cyclohexyl)methyl)amino)pyrimidin-5-yl)(methyl)carbamate] | 0.059 | 0.065 | – | – |
| Nc1cnc(NC[C@H]2CC[C@H](Nc3ccc4ccnc(OC(F)F)c4n3)CC2)nc1 [Compound C66, N^2-(((1,4-trans)-4-((8-(difluoromethoxy)-1,7-naphthyridin-2-yl)amino)cyclohexyl)methyl)pyrimidine-2,5-diamine] | 0.204 | 0.16 | – | – |
| Clc1nccc2ccc(N[C@H]3CC[C@H](CNc4ncc(-c5nnc[nH]5)cn4)CC3)nc12 [Compound C67, N-((1,4-trans)-4-(((5-(4H-1,2,4-triazol-3-yl)pyrimidin-2-yl)amino)methyl)cyclohexyl)-8-chloro-1,7-naphthyridin-2-amine] | 0.029 | 0.036 | – | – |
| CC(CO)Oc1cnc(NC[C@H]2CC[C@H](Nc3ccc4ccnc(Cl)c4n3)CC2)nc1 (stereo partly drawn) [Compound C68, 2-((2-((((1,4-trans)-4-((8-chloro-1,7-naphthyridin-2-yl)amino)cyclohexyl)methyl)amino)pyrimidin-5-yl)oxy)propan-1-ol] | 0.049 | 0.018 | – | – |
| C[C@@H](C(=O)N1CC(O)C1)c1cnc(NC[C@H]2CC[C@H](Nc3ccc4ccnc(Cl)c4n3)CC2)nc1 [Compound C71, (R)-2-(2-((((1,4-trans)-4-((8-chloro-1,7-naphthyridin-2-yl)amino)cyclohexyl)methyl)amino)pyrimidin-5-yl)-1-(3-hydroxyazetidin-1-yl)propan-1-one] | – | – | 2 | – |
| O=C(NC1COC1)C(CO)c1cnc(NC[C@H]2CC[C@H](Nc3ccc4ccnc(Cl)c4n3)CC2)nc1 (stereo partly drawn) [Compound C72, 2-(2-((((1,4-trans)-4-((8-chloro-1,7-naphthyridin-2-yl)amino)cyclohexyl)methyl)amino)pyrimidin-5-yl)-3-hydroxy-N-(oxetan-3-yl)propanamide] | 0.049 | 0.056 | – | – |
| O=C(NC1COC1)[C@H](O)c1cnc(NC[C@H]2CC[C@H](Nc3ccc4ccnc(Cl)c4n3)CC2)nc1 [Compound C76, (R)-2-(2-((((1,4-trans)-4-((8-chloro-1,7-naphthyridin-2-yl)amino)cyclohexyl)methyl)amino)pyrimidin-5-yl)-2-hydroxy-N-(oxetan-3-yl)acetamide] | – | – | 1 | – |
